This is an account of results in patent publication US8440417B2, “Method for assaying compounds or agents for ability to displace potent ligands of hematopoietic prostaglandin D synthase” (Cayman Chemical Company, Incorporated, priority 2008, dated 2013).

Like-named read-outs stand apart in the source and are kept apart here.

One experiment concerns the target MBP-H-PGDS fusion enzyme (Homo sapiens, UniProt O60760). Description: MBP-H-PGDS fluorescence polarization (FP) displacement assay. Particulars: detection analyte Compound 20; mean ± spread, N in cell; read-out: MBP-H-PGDS FP Assay: test compound IC50. It counts as binding. Here is the method:
Detection analyte and H-PGDS-MBP fusion enzyme were incubated in the presence of reduced glutathione (5 mM) for 30-60 minutes at room temperature and FP was measured using a TECAN SAFIRE 2 plate reader equipped with absorbance, fluorescence, fluorescence polarization and FRET capabilities. Assays were performed in 96-well microtiter plates in 100 μL of total sample volume. Excitation and emission wavelengths appropriate for the employed detection analyte were used.
H-PGDS-Maltose binding protein (MBP; 100 μl, 0.5 mg/ml) fusion (MBP-H-PGDS fusion) (FIG. 6) was diluted with 1×FP buffer (900 μL).
Into a 50 mL conical tube was added the H-PGDS 1×FP buffer (18.65 mL), H-PGDS FP fluorescent probe—green (138 μL), MBP-H-PGDS fusion dilution (880 μL), and glutathione solution (1,250 μL).
Assay cocktail (47.5 μL) was added to each plate well.
Test compound solutions (2.5 μL) were added to the wells. […] The IC50 for a particular test compound was obtained by performing a full concentration titration versus a full concentration titration of positive control. Comparison of a single concentration of a test compound to the maximum binding well provided an assessment of the relative affinity of the test compound for MBP-H-PGDS.
The plate was covered and incubated for 60-90 minutes at room temperature. The FP signal is stable for at least two hours.
Plates were read with excitation and emission wavelengths of 470 nm and 530 nm (for detection analyte comprising the fluorescein fluorophore), respectively.
fluorescence polarization of a molecule is defined as: Polarization (mP)=1,000×(Iparallel−Iperpendicular)/(Iparallel+Iperpendicular) where Iparallel is the parallel emission intensity measurement and Iperpendicular is the perpendicular emission intensity measurement.
The clone was then transformed into the expression strain BL21 (DE3) star cells and a glycerol stock was generated. The expected size is 66.29 kDa.

The target in experiment [1] is T1, H-PGDS (Homo sapiens, UniProt O60760). The following applies: [1-14C]PGH2 to [1-14C]PGD2, RIA; Aritake et al. 2006; read-out: Reported H-PGDS inhibition IC50; cited from earlier work.
Experiment [2] deals with T1, H-PGDS. The following applies: order of magnitude in words; cited from earlier work.
In experiment [3] the test system is PGD2 levels in guinea pig lung tissues. Particulars: chronic treatment; Matsushita et al. 1998; cited from earlier work.
In experiment [4] the target is T1, H-PGDS. The following applies: Taiho poster / patent application, method not stated; read-out: Reported H-PGDS inhibition IC50; cited from earlier work.
Experiment [5] addresses T1, H-PGDS. Particulars: GSH-MCB conjugation, fluorometry; Evotec WO 2008/122787, AstraZeneca J. Med. Chem. 2008; read-out: Reported H-PGDS inhibition IC50; cited from earlier work.

MBP-H-PGDS fusion enzyme, sequence (O60760 2-199, looked up): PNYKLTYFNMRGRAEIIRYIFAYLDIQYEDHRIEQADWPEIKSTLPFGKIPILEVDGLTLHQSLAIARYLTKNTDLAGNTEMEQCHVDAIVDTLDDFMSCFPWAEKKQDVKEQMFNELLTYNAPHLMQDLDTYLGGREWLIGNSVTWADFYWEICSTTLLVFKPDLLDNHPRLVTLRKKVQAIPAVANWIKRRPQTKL
T1 sequence (O60760 whole entry, species assumed): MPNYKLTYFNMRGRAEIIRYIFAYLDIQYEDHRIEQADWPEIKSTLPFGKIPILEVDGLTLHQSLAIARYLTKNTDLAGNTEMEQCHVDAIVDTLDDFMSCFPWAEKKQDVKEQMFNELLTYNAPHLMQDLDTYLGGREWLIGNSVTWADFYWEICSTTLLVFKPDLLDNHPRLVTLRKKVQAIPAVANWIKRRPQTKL

By IC50 is commonly meant the point on the concentration scale where inhibition reaches its midpoint. `O=C(NCc1ccccc1)c1cnc(-c2ccccc2)nc1`: at MBP-H-PGDS fusion enzyme, the IC50 is 125 nM.

Regarding `c1ccc(C(OC2CCN(CCCc3nnn[nH]3)CC2)c2ccccc2)cc1`, the results for the IC50 on H-PGDS [1] and on MBP-H-PGDS fusion enzyme were 6 µM and 15000 nM, respectively. Moreover, the “IC50 against H-PGDS in known in vitro assays” value at H-PGDS [2] was “micromolar”. In addition, the “PGD2 levels in guinea pig lung tissues” value in experiment [3] is given as “reduce PGD2 levels”. In the case of `O=C(NC1CCN(Cc2ccccc2)CC1)c1cnc(-c2ccccc2)nc1`, the half-maximal inhibitory concentration (IC50) at MBP-H-PGDS fusion enzyme was 50 ± 14 nM. For `O=C(NC1CCN(Cc2ccccc2)CC1)c1ccc(-c2ccccc2)nc1`, the concentration for half-maximal inhibition (IC50) at MBP-H-PGDS fusion enzyme came out at 30 nM.

`O=C(NC1CCN(Cc2ccccc2)CC1)c1ccc(-c2cccc(F)c2)nc1`: the IC50 on MBP-H-PGDS fusion enzyme amounted to 30 nM. As for `O=C(Nc1ccc(N2CCOCC2)cc1)c1cnc(Oc2ccccc2)nc1`, the 50% inhibitory concentration (IC50) on H-PGDS [4] was 190 nM; at MBP-H-PGDS fusion enzyme, 38 ± 11 nM. As to `Cc1ccc2nc(NC(=O)N3CCN(C(=O)c4cccc(F)c4)CC3)sc2c1`, the half-inhibitory concentration (IC50) at H-PGDS [5] was 1 to 10 nM; on MBP-H-PGDS fusion enzyme it was 308 ± 11 nM. `Cc1[nH]c(C(=O)CCCc2ccccn2)c(C)c1-c1nc2cc(C(=O)c3ccccc3)ccc2[nH]1`: the half-maximal inhibitory concentration (IC50) on H-PGDS [4] was 72 nM; at MBP-H-PGDS fusion enzyme, 25 ± 7 nM. As for `c1ccc(-c2ncc(-c3cc[nH]n3)s2)cc1`, the IC50 on MBP-H-PGDS fusion enzyme came out at 438 ± 265 nM. In the case of `O=C(NCCNc1ccccc1)c1cnc(-c2ccccc2)nc1` [2-phenyl-N-(2-(phenylamino)ethyl)pyrimidine-5-carboxamide], at MBP-H-PGDS fusion enzyme, the IC50 was determined as 375 ± 180 nM. As to `O=C(c1cnc(-c2ccccc2)nc1)N1CCNCC1` [(2-phenylpyrimidin-5-yl)(piperazin-1-yl)methanone], the IC50 at MBP-H-PGDS fusion enzyme is 250000 nM. Same read-out and setting: next, `NCCNS(=O)(=O)c1cccc(CNC(=O)c2cnc(-c3ccccc3)nc2)c1` [Compound 19, N-(3-(N-(2-aminoethyl)sulfamoyl)benzyl)-2-phenylpyrimidine-5-carboxamide]: 200 to 300 nM.

For `COc1ccc(CNC(=O)c2ccc(-c3ccccc3)nc2)cc1OC` [N-(3,4-dimethoxybenzyl)-6-phenylnicotinamide], at MBP-H-PGDS fusion enzyme, the concentration for half-maximal inhibition (IC50) was found to be 575 ± 460 nM.

With `Cc1nc(-c2cccc(F)c2)sc1C(=O)NCc1ccccc1` [N-benzyl-2-(3-fluorophenyl)-4-methylthiazole-5-carboxamide], the 50% inhibitory concentration (IC50) at MBP-H-PGDS fusion enzyme amounted to 900 ± 140 nM. Take `COc1ccc(/C=C/C(=O)Nc2ccccc2C(=O)O)cc1OC` [Tranilast]: on H-PGDS [2], the “IC50 against H-PGDS in known in vitro assays” value was “micromolar”.
